{"source": "patent US9012403B2", "about": "“Peptides as active agents to stabilize biological barriers” (XiberScience GmbH, priority 2010, dated 2015)", "key": {"GTP-bound RhoA [1]": {"test_system": "GTP-bound RhoA", "assay": "GTP-associated active RhoA in HpMec membrane fraction (western blot)", "type": "cell-based", "conditions": "HpMec, no stimulus, peptide 50 μg/ml", "protocol": "(§1) To measure the GTP-associated active RhoA, the following cell lines were used: Caco-2, ECV304 and HpMec. All cells were grown at standard conditions (37° C., 5% CO2 and 95% rH). 4 h before the experiment, cells were starved by serum withdrawal. To induce GEF-activity, cells were stimulated with thrombin, LPS or PMA for the indicated time in presence or absence of 50 μg/ml XIB1-a or XIB1-b. After stimulation, membrane fractions were prepared by using the commercial available “Compartemental Protein Extraction Kit” from Biochain Institutes. Membrane fractions were prepared according to the manufacturer instructions. The membrane fraction was separated on 15% polyacrylamide gel according to standard procedures of gel electrophoresis. The gels were afterwards blotted on a nitrocellulose membrane according to standard procedures of western blotting. GTP-bound RhoA was detected using RhoA-GTP monoclonal antibody from NewEast Inc. in a dilution of 1:5000. Protein bands were analyzed with the Dolphin-1D Gel analysis system (Wealtec)."}, "GEF [2]": {"test_system": "GEF", "assay": "GEF-activity in membrane fractions of ECV304 cells (RhoGEF Exchange Assay)", "type": "cell-based", "conditions": "ECV 304, no stimulus, peptide 50 μg/ml", "protocol": "(§2) To measure the GEF-inhibitory effect, the following cell lines were used: Caco-2 (epithelial cells from adeno-carcinoma), ECV304 (epithelial cells from bladder carcinoma) and HpMec (endothelial cells, immortalized pulmonary micro-vascular cells). All cells were grown at standard conditions (37° C., 5% CO2 and 95% relative humidity (rH)). Culture Medium used for Caco-2: DMEM+1 mM sodium pyruvate+20% FCS+1% Penicillin Streptomycin; for ECV 304: RPMI 1640+10% FCS+1% Penicillin Streptomycin; and for HpMec: IMDM+25 mM Hepes+10% Human Serum+1% Penicillin Streptomycin+1% L-Glutamine+ECGS/Heparin 2 ml. 4 h before the experiment, cells were starved by serum withdrawal. To induce GEF-activity, cells were stimulated with thrombin, lipopolysaccharide (LPS) or PMA for the indicated time in presence or absence of 50 μg/ml XIB1-a or XIB1-b. After stimulation, membrane fractions were prepared by using the commercial available “Compartemental Protein Extraction Kit” from Biochain institutes. Membrane fractions were prepared according to the manufacturer instructions. GEF-activity in membrane lysates was determined by using “RhoGEF Exchange Assay Biochem Kit” from Cytoskeleton Inc. according to manufacturer instructions. GEF-activity was measured as fluorescence at using the Fluoroskan Ascent FL 2.6 from Thermo Electron Corporation. The excitation Filter wavelength was set at 355 nm and the emission filter wavelength at 460 nm."}, "[3]": {"test_system": "Phosphorylated Myosin Light Chain (MLC) and actin stress fibers", "assay": "MLC phosphorylation and actin stress fiber formation in HpMec cells (microscopy score)", "type": "cell-based", "conditions": "no stimulus, peptide 50 μg/ml", "protocol": "(§3) To measure MLC phosphorylation and actin stress fiber formation, the following cell lines were used: Caco-2, ECV304 and HpMec. All cells were grown at standard conditions (37° C., 5% CO2 and 95% rH). Culture Medium used: for Caco-2: DMEM+1 mM sodium pyruvate+20% FCS+1% Penicillin Streptomycin; for ECV 304: RPMI 1640+10% FCS+1% Penicillin Streptomycin; and for HpMec: IMDM+25 mM Hepes+10% Human Serum+1% Penicillin Streptomycin+1% L-Glutamine+ECGS/Heparin 2 ml. 4 h before the experiment, cells were starved by serum withdrawal. To induce GEF-activity, cells were stimulated with thrombin, LPS or PMA for the indicated time in presence or absence of 50 μg/ml XIB1-a or XIB1-b. After stimulation, cells were fixed using 4% PFA. Phospho MLC was detected by using the “rabbit anti phosphor-myosin light chain antibody” from Chemicon in a concentration of 3 μl/ml in PBS (Gibco) supplemented with 0.1% Triton X-100. As detection antibody, the Alexa 448 tagged “anti Rabbit IgG Antibody” from Invitrogen was used in a concentration of 0.5 μl/ml in PBS (Gibco) supplemented with 0.1% Triton X-100. Aktin was detected using TRITC-labeled Phalloidin in a concentration of 0.5 μl/ml in PBS (Gibco) supplemented with 0.1% Triton. Stained cells were analyzed by using a Zeiss Laser Scan microscope. Evaluation of the cyto-skeletal activation was performed by 2 independent observers that were blinded to the conditions. Evaluation criteria were set as follows:\n(§4) Actin: parallel actin bundles absent=0; distinct bundle formation=1; prominent parallel bundles=2; Phospho-MLC: present at cell poles=0; slight co-localization with actin bundles=1; prominent co-localization with actin bundles=2"}, "[4]": {"test_system": "Phosphorylated Myosin Light Chain (MLC) and actin stress fibers", "assay": "MLC phosphorylation and actin stress fiber formation in ECV304 cells (microscopy score)", "type": "cell-based", "conditions": "ECV 304, no stimulus, peptide 50 μg/ml", "protocol": "as §3, §4"}, "GEF [5]": {"test_system": "GEF", "assay": "GEF-activity in membrane fractions of HpMec cells (RhoGEF Exchange Assay)", "type": "cell-based", "conditions": "HpMec, no stimulus, peptide 50 μg/ml", "protocol": "as §2"}, "GTP-bound RhoA [6]": {"test_system": "GTP-bound RhoA", "assay": "GTP-associated active RhoA in ECV304 membrane fraction (western blot)", "type": "cell-based", "conditions": "ECV 304, no stimulus, peptide 50 μg/ml", "protocol": "as §1"}, "LPS induced lung injury": {"test_system": "LPS induced lung injury", "assay": "LPS induced lung injury, bronchoalveolar lavage", "type": "in vivo", "conditions": "mice, n = 20", "protocol": "Male C57Bl/6 Mice (Charles River, Germany) were kept at the animal facility of the Medical University of Vienna, feed with standard diet and water was provided ad libitum. All interventions were performed according to the guide lines of AAALAC (Association for Assessment and Accreditation of Laboratory Animal Care). All experiment were approved by the Ethic committee of the Medical University of Vienna. Mice were anesthetized with isoflouran and treated with 100 ng of LPS (E. coli O55:B5, Sigma Aldrich) intranasally. XIB1-a or XIB1-b was applied either intra-peritoneally (2×2 mg/kg) or via inhalation (2×4 mg/kg), first application was performed concomitantly with LPS administration, the second application was performed 1 h after the LPS inhalation.\nThe trachea was exposed through a midline incision and canulated with a sterile 20-gauge catheter (BD Venflon™, Becton Dickinson Infusion Therapy, Helsingborg, Sweden). Bilateral broncho-alveolar lavage fluid (BALF) was gained by instilling two 0.5 ml aliquots of sterile saline. Approximately 0.9-1 ml BALF was retrieved per mouse. Total cell numbers were counted from each sample using a hemo-cytometer (Türck chamber), BALF differential cell counts were done on cytospin preparations stained with Giemsa. For protein measurements, BALF was diluted 1:2 in buffer containing 300 mM NaCl, 30 mM Tris, 2 mM MgCl2, 2 mM CaCl2, and Pepstatin A, Leupeptin and Aprotinin (all 20 ng/ml; pH 7.4). Protein levels in BALF were measured using the BCA protein kit according to the manufacturer's instructions (Pierce, Rockford, Ill.).\nIn addition, the same set-up as described above was used for comparing the impact of XIB1-b compared to Bβ15-42 (PLoS ONE (2009), 4(4): e5391), a peptide derived from fibrin having the sequence […] (SEQ ID NO: 41). Bβ15-42 was added in the same manner as XIB1-b. Again, protein content and cell count of BALF was measured."}, "GTP-bound RhoA [7]": {"test_system": "GTP-bound RhoA", "assay": "GTP-associated active RhoA in Caco-2 membrane fraction (western blot)", "type": "cell-based", "conditions": "CaCo-2, no stimulus, peptide 50 μg/ml", "protocol": "as §1"}, "[8]": {"test_system": "Phosphorylated Myosin Light Chain (MLC) and actin stress fibers", "assay": "MLC phosphorylation and actin stress fiber formation in Caco-2 cells (microscopy score)", "type": "cell-based", "conditions": "CaCo-2, no stimulus, peptide 50 μg/ml", "protocol": "as §3, §4"}, "GEF [9]": {"test_system": "GEF", "assay": "GEF-activity in membrane fractions of Caco-2 cells (RhoGEF Exchange Assay)", "type": "cell-based", "conditions": "CaCo-2, no stimulus, peptide 50 μg/ml", "protocol": "as §2"}, "[10]": {"conditions": "6 h after LPS administration, intratracheal application"}}, "note": "Marks after values point to notes of the source that are not given here.", "data": [{"sequence": "GGGGGLSRRIP (/note=“Description of artificial sequence variable insert”) [Control Peptide, random peptide used for control purposes, reference compound]", "values": [{"measurement": "GTP-bound RhoA, relative values compared to unstimulated control (Mean)", "setting": "GTP-bound RhoA [1]; 1 min", "result": 1}, {"measurement": "GTP-bound RhoA, relative values compared to unstimulated control (Mean)", "setting": "GTP-bound RhoA [1]; 5 min", "result": 1}, {"measurement": "GEF-activity, relative values compared to unstimulated control (Mean)", "setting": "GEF [2]; 1 min", "result": 1}, {"measurement": "GEF-activity, relative values compared to unstimulated control (Mean)", "setting": "GEF [2]; 5 min", "result": 1}, {"measurement": "MLC phosphorylation and actin stress fiber formation, evaluation score (Mean)", "setting": "[3]; 1 min", "result": 0}, {"measurement": "MLC phosphorylation and actin stress fiber formation, evaluation score (Mean)", "setting": "[3]; 5 min", "result": 0}, {"measurement": "MLC phosphorylation and actin stress fiber formation, evaluation score (Mean)", "setting": "[4]; 1 min", "result": 0}, {"measurement": "MLC phosphorylation and actin stress fiber formation, evaluation score (Mean)", "setting": "[4]; 5 min", "result": 0}, {"measurement": "GEF-activity, relative values compared to unstimulated control (Mean)", "setting": "GEF [5]; 1 min", "result": 1}, {"measurement": "GEF-activity, relative values compared to unstimulated control (Mean)", "setting": "GEF [5]; 5 min", "result": 1}, {"measurement": "GTP-bound RhoA, relative values compared to unstimulated control (Mean)", "setting": "GTP-bound RhoA [6]; 1 min", "result": 1}, {"measurement": "GTP-bound RhoA, relative values compared to unstimulated control (Mean)", "setting": "GTP-bound RhoA [6]; 5 min", "result": 1}, {"measurement": "counts of neutrophils in the BALF (mean +/ SD)", "setting": "LPS induced lung injury; comparison with Bβ15-42 (Table 6), 6 h after LPS, intraperitoneal application", "result": "91 +/− 33 neutrophils/ml (× 10^3)"}, {"measurement": "counts of neutrophils in the BALF (mean +/ SD)", "setting": "LPS induced lung injury; comparison with Bβ15-42 (Table 6), 6 h after LPS, intratracheal plus intraperitoneal application", "result": "94 +/− 30 neutrophils/ml (× 10^3)"}, {"measurement": "albumine content of BALFs (mean +/ SD)", "setting": "LPS induced lung injury; comparison with Bβ15-42 (Table 6, last section), 6 h after LPS, intraperitoneal application as printed", "result": "250 ± 25", "unit": "µg/mL"}, {"measurement": "counts of neutrophils in the BALF (mean +/ SD)", "setting": "LPS induced lung injury; 6 h after LPS administration, intraperitoneal application (2×2 mg/kg)", "result": "88 +/− 33 neutrophils/ml (× 10^3)"}, {"measurement": "albumine content of BALFs (mean +/ SD)", "setting": "LPS induced lung injury; [10]", "result": "237 ± 32", "unit": "µg/mL"}, {"measurement": "counts of neutrophils in the BALF (mean +/ SD)", "setting": "LPS induced lung injury; [10]", "result": "90 +/− 30 neutrophils/ml (× 10^3)"}, {"measurement": "GTP-bound RhoA, relative values compared to unstimulated control (Mean)", "setting": "GTP-bound RhoA [7]; 1 min", "result": 1}, {"measurement": "GTP-bound RhoA, relative values compared to unstimulated control (Mean)", "setting": "GTP-bound RhoA [7]; 5 min", "result": 1}, {"measurement": "MLC phosphorylation and actin stress fiber formation, evaluation score (Mean)", "setting": "[8]; 1 min", "result": 0}, {"measurement": "MLC phosphorylation and actin stress fiber formation, evaluation score (Mean)", "setting": "[8]; 5 min", "result": 0}, {"measurement": "GEF-activity, relative values compared to unstimulated control (Mean)", "setting": "GEF [9]; 1 min", "result": 1}, {"measurement": "GEF-activity, relative values compared to unstimulated control (Mean)", "setting": "GEF [9]; 5 min", "result": 1}]}]}
